Measured values: patent publication US5304551A, “Anti-fungal compounds” (British Technology Group Limited, priority 1990, dated 1994)
Converted amounts (≈) assume the structure as drawn.

What was measured:
Type in all cases: cell-based
[1] = tested on: Microsporum audounii NCPF 638; experiment: Antifungal activity, agar plate disc zone of inhibition, approximate MIC, Microsporum audounii; conditions: for MIC: Microsporum, NCPF638, M. audounii, approximate MIC, compound in dimethyl sulphoxide, 13 mm discs on nutrient agar, 24h and 48h incubation; for activity against the ringworm organism (in words): athlete's foot and ringworm organisms
Procedure: (§1) Candida albicans NCYC 597; Trichophyton mentagrophytes NCPF 224 and Microsporum audounii NCPF 638 were used throughout as test organisms. These are open deposits at the National Collection of Yeast Cultures, Norwich UK and the National Collection of Pathogenic Fungi of the Commonwealth Mycological Institute, Kew UK.
(§2) All organisms were maintained in a nutrient broth containing (gl^-1): Lab Lemco (Oxoid), 5; Peptone (Oxoid), 5; NaCl, 10. Cultures for testing antimicrobial activity were grown in this medium for 18h prior to use. Solidified media were prepared by the addition of Agar (Oxoid No. 3) 1.5% w/v.
(§3) Antifungal activity was estimated using solutions of the compound (as the free acid) in dimethyl sulphoxide. A range of concentrations was used for each compound to permit calculation of an approximate MIC. 13 mm discs (Whatman) were soaked in a solution of the appropriate dilution, either allowed to dry, or placed directly onto the surface of nutrient agar plates seeded with the required test organism.
(§4) After 24h incubation the diameters of zones of inhibition were measured. After a further 24h incubation, the plates were re-examined and zones re-measured.

[2] = tested on: Trichophyton mentagrophytes NCPF 224; experiment: Antifungal activity, agar plate disc zone of inhibition, approximate MIC, Trichophyton mentagrophytes; conditions: for MIC: Trichophyton mentagrophytes, NCPF224, approximate MIC, compound in dimethyl sulphoxide, 13 mm discs on nutrient agar, 24h and 48h incubation, read-out: MICs, T. ment.; for activity against the athlete's foot organism (in words): athlete's foot and ringworm organisms
Procedure: as §1, §2, §3, §4

[3] = tested on: Candida albicans NCYC 597; experiment: Antifungal activity, agar plate disc zone of inhibition, approximate MIC, Candida albicans; conditions: NCYC597, C. albicans, compound in dimethyl sulphoxide, 13 mm discs on nutrient agar, 24h and 48h incubation, read-out: MICs, C. albicans
Procedure: as §1, §2, §3, §4

| Compound | MIC [1] [µg/mL] | MICs, T. ment. (result in words) ([2]; T. mentagrophytes, no MIC / no activity) | MIC [3] [µg/mL] | MIC ([2]; T. mentagrophytes) [µg/mL] | activity against the ringworm organism (in words) [1] | activity against the athlete's foot organism (in words) [2] |
| --- | --- | --- | --- | --- | --- | --- |
| C[C@H](CCCCO)[C@H]1CC[C@H]2[C@@H]3[C@H](O)C[C@@H]4C[C@H](O)CC[C@]4(C)[C@H]3CC[C@]12C [chenodeoxycholic, Z = CH2 OH, 3α,7α,25-trihydroxy-25-homo-5β-cholane] | 270 (≈ 688 µM) | NONE | 110 (≈ 280 µM) |  |  |  |
| C[C@H](CCCO)[C@H]1CC[C@H]2[C@@H]3[C@H](O)C[C@@H]4C[C@H](O)CC[C@]4(C)[C@H]3CC[C@]12C [chenodeoxycholic, Z = OH, 3α,7α,24-trihydroxy-5β-cholane] | 50 (≈ 132 µM) |  | 7000 (≈ 18500 µM) | 30 (≈ 79.2 µM) |  |  |
| C[C@H](CCCCO)[C@H]1CC[C@H]2[C@@H]3[C@H](O)C[C@@H]4C[C@H](O)CC[C@]4(C)[C@H]3C[C@H](O)[C@]12C [cholic, Z = CH2 OH, 3α,7α,12α,25-tetrahydroxy-25-homo-5β-cholane] | 20 to 50 (≈ 48.9 to 122 µM) |  | 450 (≈ 1100 µM) | 100 (≈ 245 µM) |  |  |
| C[C@H](CCCO)[C@H]1CC[C@H]2[C@@H]3[C@H](O)C[C@@H]4C[C@H](O)CC[C@]4(C)[C@H]3C[C@H](O)[C@]12C [cholic, Z = OH, 3α,7α,12α,24-tetrahydroxy-5β-cholane] | 3800 (≈ 9630 µM) |  | 900 (≈ 2280 µM) | 1650 (≈ 4180 µM) |  |  |
| C[C@H](CCCCO)[C@H]1CC[C@H]2[C@@H]3CC[C@@H]4C[C@H](O)CC[C@]4(C)[C@H]3C[C@H](O)[C@]12C [deoxycholic, Z = CH2 OH, 3α,12α,25-trihydroxy-25-homo-5β-cholane] | 5 (≈ 12.7 µM) |  | 150 (≈ 382 µM) | 30 (≈ 76.4 µM) | outstanding | outstanding |
| C[C@H](CCCO)[C@H]1CC[C@H]2[C@@H]3CC[C@@H]4C[C@H](O)CC[C@]4(C)[C@H]3C[C@H](O)[C@]12C [deoxycholic, Z = OH, 3α,12α,24-trihydroxy-5β-cholane] | 10 (≈ 26.4 µM) |  | 730 (≈ 1930 µM) | 10 (≈ 26.4 µM) | outstanding | outstanding |
